Here are results for seven compounds from US6503935B1, “Imidazoles and related compounds as α1A agonists” (Abbott Laboratories, priority 1998, dated 2003).

For data set [1], the system named is Anesthetized Dogs. Kind of data set: Mean arterial pressure (MAP) in anesthetized dogs. The class given is in vivo, dog. The note with it: iv dose causing a maximum increase in MAP of 20 mm Hg, anesthetized female dogs. The text has this: (§1) In vivo Functional Assays-Assessment of Intrurethral Pressure (IUP) and Mean Arterial Pressure (MAP) in Anesthetized Dogs
(§2) Female dogs (Marshall Farms, North Rose, N.Y.) greater that 2 years of age and weighing between 12 and 15 kg were used in these studies. At least 2 weeks prior to any agonist dosing, dogs were instrumented for the chronic measurement of arterial blood pressure by implanting a telemetry transducer/transmitter (TA11PA-C40, Data Sciences International, St. Paul, Minn.) into a carotid artery.
(§3) On the test day, dogs fasted since the previous afternoon were pre-anesthetized with thiopental sodium 15 mg/kg i.v. (Pentothal™, Abbott) and intubated. Anesthesia was maintained by allowing the dog to spontaneously breathe a mixture of isoflurane (2.5 to 3 volume %) and oxygen delivered by a Narkomed Standard anesthesia system (North American Drager, Telford, Pa.). An Abbocath-T™ i.v. catheter (18-G, Abbott) was inserted into the cephalic vein for the administration of agonists. A telemetry receiver (RA1310, DataSciences) was placed under the head of each dog and was interfaced to a computerized data acquisition system (Modular Instruments Inc.(MI2), Malvern, Pa.) which allowed for the continuous calibrated recording of arterial blood pressure which was electronically filtered to determine its mean value (MAP).
(§4) Dogs with chronic telemetry implants anesthetized as described above were placed in dorsal recumbency and a balloon catheter was inserted into the urethral orifice and advanced approximately 15 cm until the tip was well inside the bladder. The balloon was then inflated with 1 ml of room air and the catheter slowly withdrawn until resistance (corresponding to the bladder neck) was evident. The balloon was then deflated and the catheter withdrawn an additional 2 cm. The balloon was then reinflated and its catheter port connected to a Gould Statham P23Dd pressure transducer interfaced to a computerized data acquisition system (Modular Instruments, Inc., Malvern, Pa.) for the measurement of intraurethral pressure. Increasing iv doses of test agonists were administered and the maximum effect of each dose on IUP was recorded. The effect of each dose was allowed to return to baseline before the next dose was given.
(§5) From the resulting dose response curve, an ED5 value, for the dose causing a maximum increase in IUP of 5 mm Hg, could be estimated. An ED20 value for the dose causing a maximum increase in MAP of 20 mm Hg could also be estimated. A selectivity ratio of MAP ED20 vs. IUP ED5 was calculated.

Data set [2] has as its system Anesthetized Dogs. Kind of data set: Intraurethral pressure (IUP) in anesthetized dogs. The class given is in vivo, dog. Conditions: Canis lupus familiaris; iv dose causing a maximum increase in IUP of 5 mm Hg, anesthetized female dogs; read-out: Mean IUP ED5.
The next data set deals with T1, α1A (rabbit urethra) (Oryctolagus cuniculus, UniProt O02824).
T1 construct: tested for α1A functional activity using rabbit urethra; from tissue; host or cells: rabbit urethra
T1 sequence (O02824 1-466): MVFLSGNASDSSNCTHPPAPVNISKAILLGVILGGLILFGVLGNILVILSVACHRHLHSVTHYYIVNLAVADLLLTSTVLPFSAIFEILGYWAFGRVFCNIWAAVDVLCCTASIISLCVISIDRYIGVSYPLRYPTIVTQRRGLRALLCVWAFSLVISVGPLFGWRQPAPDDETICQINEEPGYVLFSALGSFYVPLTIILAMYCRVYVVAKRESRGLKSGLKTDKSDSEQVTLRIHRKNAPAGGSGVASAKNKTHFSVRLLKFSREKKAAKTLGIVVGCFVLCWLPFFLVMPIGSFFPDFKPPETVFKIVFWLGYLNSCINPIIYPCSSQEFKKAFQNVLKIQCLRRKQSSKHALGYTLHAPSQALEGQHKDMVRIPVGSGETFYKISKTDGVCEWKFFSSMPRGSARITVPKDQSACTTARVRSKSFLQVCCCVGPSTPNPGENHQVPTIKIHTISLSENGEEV
Kind of data set: Agonist contraction of smooth muscle tissue, rabbit urethra. The class given is cell-based. Conditions: rabbit urethra; read-out: Agonist Tissue Response (pD2) α1A (rab ureth) (converted). Here is the method: Most of the compounds were tested for α1A functional activity using rabbit urethra as follows. Female New Zealand white rabbits (2.0-3.5 Kg) were sedated with CO2 and decapitated. […] Subsequent experimental conditions were as described above for the other tissues. Agonist concentration response curves were cumulative except for the vas deferens assay in which the transient response made such measurements impractical.

Data set [3] concerns the target T2, α1b (hamster receptor expressed in mouse fibroblasts) (Mesocricetus auratus, UniProt P18841).
T2 construct: expressed in transfected cells; host or cells: mouse fibroblasts
T2 sequence (P18841 1-515): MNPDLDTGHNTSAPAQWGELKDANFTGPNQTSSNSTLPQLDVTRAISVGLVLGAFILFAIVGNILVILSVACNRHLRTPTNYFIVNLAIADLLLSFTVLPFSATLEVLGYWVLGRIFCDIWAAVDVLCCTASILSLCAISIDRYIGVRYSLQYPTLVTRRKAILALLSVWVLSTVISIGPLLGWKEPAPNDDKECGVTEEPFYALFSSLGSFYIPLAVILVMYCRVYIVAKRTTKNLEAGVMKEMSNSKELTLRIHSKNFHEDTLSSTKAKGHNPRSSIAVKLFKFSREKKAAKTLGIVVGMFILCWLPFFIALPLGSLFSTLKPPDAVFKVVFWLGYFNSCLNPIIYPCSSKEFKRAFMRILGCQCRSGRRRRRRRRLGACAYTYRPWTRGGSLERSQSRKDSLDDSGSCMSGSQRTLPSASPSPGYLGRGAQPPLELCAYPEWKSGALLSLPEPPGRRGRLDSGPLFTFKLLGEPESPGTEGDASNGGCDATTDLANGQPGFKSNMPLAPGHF
Kind of data set: Radioligand binding with [3H]-prazosin, α1b. On the procedure:
(§6) For purposes of discussing α1 adrenoceptor subtypes, the IUPHAR convention of using lower case letters to define molecular clones and upper case letters to indicate pharmacologically defined adrenoceptors has been followed. Compounds of formula I were evaluated in radioligand binding assays specific for α1A (rat submaxillary gland), α1b (hamster receptor expressed in mouse fibroblasts) and α1d (rat receptor expressed in mouse fibroblasts) using [^3H]-prazosin as the radioligand as described in Knepper, et al. J. Pharm.

Data set [4] addresses T3, α1A (rat submaxillary gland) (Rattus norvegicus, UniProt P43140).
T3 construct: α1A (rat submaxillary gland); from tissue; host or cells: rat submaxillary gland
T3 sequence (P43140 1-466): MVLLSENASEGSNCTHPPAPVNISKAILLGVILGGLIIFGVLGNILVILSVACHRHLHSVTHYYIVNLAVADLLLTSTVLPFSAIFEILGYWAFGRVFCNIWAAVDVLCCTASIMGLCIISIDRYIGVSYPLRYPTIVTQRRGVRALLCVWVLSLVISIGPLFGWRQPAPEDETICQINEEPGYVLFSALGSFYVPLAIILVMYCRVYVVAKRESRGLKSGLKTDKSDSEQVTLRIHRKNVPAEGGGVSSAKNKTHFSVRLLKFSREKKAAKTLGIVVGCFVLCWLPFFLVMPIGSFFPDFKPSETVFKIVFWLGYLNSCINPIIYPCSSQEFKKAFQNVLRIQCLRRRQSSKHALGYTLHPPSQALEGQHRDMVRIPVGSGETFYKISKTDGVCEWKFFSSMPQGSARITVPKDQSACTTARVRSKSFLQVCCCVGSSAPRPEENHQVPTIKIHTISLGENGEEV
Nature of the data set: Radioligand binding with [3H]-prazosin, α1A. The note with it: rat submaxillary gland, [3H]-prazosin. Here is the method: as §6

In the next data set the target is T4, α1B (rat spleen) (Rattus norvegicus, UniProt P15823).
T4 construct: α1B (rat spleen) and α1D (rat aorta) receptors; from tissue; host or cells: rat spleen
T4 sequence (P15823 1-515): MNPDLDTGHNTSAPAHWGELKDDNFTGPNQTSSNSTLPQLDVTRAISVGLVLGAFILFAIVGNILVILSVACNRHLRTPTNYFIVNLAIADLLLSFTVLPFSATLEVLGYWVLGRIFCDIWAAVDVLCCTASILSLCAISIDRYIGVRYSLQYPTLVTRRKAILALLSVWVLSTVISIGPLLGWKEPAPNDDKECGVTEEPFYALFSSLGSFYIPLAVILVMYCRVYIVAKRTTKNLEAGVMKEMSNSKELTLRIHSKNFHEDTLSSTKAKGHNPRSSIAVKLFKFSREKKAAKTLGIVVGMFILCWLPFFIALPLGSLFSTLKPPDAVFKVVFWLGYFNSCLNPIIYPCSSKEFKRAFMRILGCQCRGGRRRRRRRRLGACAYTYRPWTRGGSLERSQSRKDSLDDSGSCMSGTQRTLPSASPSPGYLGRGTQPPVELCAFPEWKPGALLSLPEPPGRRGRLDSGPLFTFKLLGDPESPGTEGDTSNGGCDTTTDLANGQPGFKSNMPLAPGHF
Nature of the data set: Agonist contraction of smooth muscle tissue, rat spleen. The class given is cell-based. The note with it: rat spleen; read-out: Agonist Tissue Response (pD2) α1B (rat spleen) (converted).

Another data set deals with T5, α1D (rat aorta) (Rattus norvegicus, UniProt P23944).
T5 construct: α1B (rat spleen) and α1D (rat aorta) receptors; from tissue; host or cells: rat aorta strips, endothelium removed
T5 sequence (P23944 1-561): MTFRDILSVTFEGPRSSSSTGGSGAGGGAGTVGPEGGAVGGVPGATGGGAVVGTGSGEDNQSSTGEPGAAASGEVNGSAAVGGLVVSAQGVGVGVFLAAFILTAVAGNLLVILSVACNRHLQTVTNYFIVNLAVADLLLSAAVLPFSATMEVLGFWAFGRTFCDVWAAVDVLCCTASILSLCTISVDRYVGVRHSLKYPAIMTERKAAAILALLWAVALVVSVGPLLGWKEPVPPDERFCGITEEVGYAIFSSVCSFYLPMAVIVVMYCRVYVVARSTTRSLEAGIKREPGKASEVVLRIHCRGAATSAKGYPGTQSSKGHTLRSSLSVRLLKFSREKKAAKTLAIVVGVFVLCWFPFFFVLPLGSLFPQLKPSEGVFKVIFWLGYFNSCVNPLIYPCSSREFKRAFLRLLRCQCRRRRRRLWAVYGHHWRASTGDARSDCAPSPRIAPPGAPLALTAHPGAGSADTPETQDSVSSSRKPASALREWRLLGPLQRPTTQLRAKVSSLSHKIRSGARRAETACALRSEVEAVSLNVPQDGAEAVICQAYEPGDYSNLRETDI
Nature of the data set: Agonist contraction of smooth muscle tissue, rat aorta. The class given is cell-based. The note with it: rat aorta, endothelium removed; read-out: Agonist Tissue Response (pD2) α1D (rat aorta) (converted).

Data set [5] concerns the target T6, α1d (rat receptor expressed in mouse fibroblasts) (Rattus norvegicus, UniProt P23944).
T6 construct: expressed in transfected cells; host or cells: mouse fibroblasts
T6 sequence (P23944 1-561): T5 sequence (P23944 1-561)
Nature of the data set: Radioligand binding with [3H]-prazosin, α1d. The note with it: Radioligand Binding Ki α1d (Rat), rat receptor expressed in mouse fibroblasts, [3H]-prazosin. Here is the method:
as §6

The subject of data set [6] is Anesthetized Dogs. Nature of the data set: Intraurethral pressure (IUP) in anesthetized dogs. The class given is in vivo, dog. Conditions: iv, anesthetized female dogs.
Source text: as §1, §2, §3, §4, §5

Where a name gives a salt, the structure may show the parent alone. Read-outs that look alike come from different tables or passages of the source.

`CS(=O)(=O)Nc1cccc2c1CCC[C@H]2c1c[nH]cn1` [Example 9, (+)-N-[(5R)-5-(1H-imidazol-4-yl)-5,6,7,8-tetrahydro-1-naphthalenyl]methanesulfonamide]: in the data set with Anesthetized Dogs [1], the “Mean MAP ED20” value is reported as 48.7 nmol/kg. Moreover, in the data set with Anesthetized Dogs [2], the ED (5 mmHg IUP increase) amounted to 0.0204 µmol/kg.

With `CS(=O)(=O)Nc1cccc2c1CCC[C@@H]2c1c[nH]cn1` [Example 10, (−)-N-[(5S)-5-(1H-imidazol-4-yl)-5,6,7,8-tetrahydro-1-naphthalenyl]methanesulfonamide], the “Mean MAP ED20” value in the data set on Anesthetized Dogs [1] is on record as >300 nmol/kg. The ED (5 mmHg IUP increase) in the data set on Anesthetized Dogs [2] is > 0.3 µmol/kg.

The Ki is the equilibrium dissociation constant of an inhibitor or competing ligand from its target. Consider `CS(=O)(=O)Nc1cc(Cc2c[nH]cn2)ccc1O` [Example 11, N-[2-hydroxy-5-(1H-imidazol-4-ylmethyl)phenyl]methanesulfonamide, hydrochloride], for which the EC50 is 0.148 µM at α1A (rabbit urethra), 1.2 µM on α1B (rat spleen) and 0.692 µM on α1D (rat aorta). Further, the figures for the Ki in data set [3], in data set [4] and in [5] were 1.4 µM, 0.0822 µM and 0.311 µM, respectively.

Regarding `CC(=O)Nc1cccc2c1CCCC2c1c[nH]cn1.O=C(O)/C=C\C(=O)O` (stereo not shown) [Example 16, N-[5,6,7,8-tetrahydro-5-(1H-imidazol-4-yl)-1-naphthalenyl]acetamide, maleate], the “Mean MAP ED20” value in the data set on Anesthetized Dogs [1] is 220 nmol/kg. In addition, the ED (5 mmHg IUP increase) in the data set on Anesthetized Dogs [2] is 0.0684 µmol/kg.

As for `CS(=O)(=O)Nc1cccc2c1OCCC2c1c[nH]cn1.O=C(O)/C=C\C(=O)O` (stereo not shown) [Example 19, N-[4-(1H-imidazol-4-yl)-3,4-dihydro-2H-chromen-8-yl]methanesulfonamide, maleate], the ED (5 mmHg IUP increase) with Anesthetized Dogs [2] was found to be 0.0671 µmol/kg.

`O=C(O)/C=C\C(=O)O.O=S(=O)(CC(F)(F)F)Nc1cccc2c1CCCC2c1c[nH]cn1` (stereo not shown) [Example 20, N-[5,6,7,8-tetrahydro-5-(1H-imidazol-4-yl)-1-naphthalenyl]-2,2,2-trifluoroethanesulfonamide, maleate]: the values for the EC50 at α1A (rabbit urethra), on α1B (rat spleen) and on α1D (rat aorta) were 2.82 µM, > 1000 µM and > 1000 µM, respectively. Further, the “Mean MAP ED20” value in the data set with Anesthetized Dogs [1] was 885 nmol/kg. This compound had a Ki in data set [4] of 0.253 µM. Also, the ED (5 mmHg IUP increase) with Anesthetized Dogs [6] (Canis lupus familiaris, iv dose causing a maximum increase in IUP of 5 mm Hg, read-out: Mean IUP ED5) worked out at 0.209 µmol/kg. Further, the “Mean Selectivity Ratio MAP ED20/IUP ED5” value in the data set on Anesthetized Dogs [6] came out at 6.1.

With `CCS(=O)(=O)Nc1cccc2c1CCC2c1c[nH]cn1.O=C(O)/C=C\C(=O)O` (stereo not shown) [Example 39, N-[1-(1H-imidazol4-yl)-2,3-dihydro-1H-inden-4-yl]ethanesulfonamide, maleate], the “Mean MAP ED20” value in the data set with Anesthetized Dogs [1] was 5.6 nmol/kg. For the same compound, the ED (5 mmHg IUP increase) with Anesthetized Dogs [2] is 0.0044 µmol/kg.
